Test [1] deals with HUVEC. The test is described as follows: Cell death assay discriminating apoptotic from necrotic cell death in HUVEC. The class given is cell-based, human. As to conditions: stimulated overnight; staining with Hoechst 33342 and EtDIII. As to the method:
Endothelial cells were grown to reach 80-90% confluency before addition of Ethidium homodimer […]) alone or together with substances or with tumour cells together with substances or inhibitors as indicated in the figures. After 6-18 h, cells were stained with Hoechst33342 and images were acquired. In order to identify the mode of cell death, all images were analyzed with FIJI. The total number of nuclei was determined through a low threshold over all Hoechst positive nuclei. On the same channel a second, separate threshold was used to determine the number of condensed nuclei. A third threshold on the second channel was used in order to determine the number of nuclei that were stained positive for […]. Knockdown in cells was achieved by double-transfection with siRNA using Lipofectamie […] Assays: HUVECs, HMVECs-L or L929 cells (1.5×10^4 at seeding in 100 μl) were cultured for 24 hours in 96-well plates. To induce cell death, cells were stimulated overnight with either rhTRAIL (100 ng/ml, Peprotech), Staurosporine ([…], Jena BioScience), H2O2 (1 mM, AppliChem) or […] (100 ng/ml, Peprotech) or cultured under hypoxic conditions (1% O2, Coy Laboratory Inc). […] Knockdown efficiencies were determined by Western Blotting using antibodies against RIPK3 (Abcam), Caspase-8 (ProSci) and a-tubulin (Sigma) upon lysis with Laemmli buffer or by quantitative PCR (Roche). […] Knockdown efficiencies were determined using quantitative PCR (Roche). Tumor cell number upon knockdown was determined by counting Hoechst33342-positive cells, and tumor cell death was determined by counting condensed and/or EthD-III-positive nuclei (see below). Cell migration was determined by a scratch assay Wang et al., 2007). […]

For test [2], the system named is HUVEC. The test is described as follows: Tumour cell-induced endothelial cell necroptosis in vitro (co-culture, Hoechst 33342/EtDIII staining). Type of test: cell-based, human. As to conditions: Nec-1 30 μM, co-culture overnight. As to the method: Endothelial cells were grown to reach 80-90% confluency before addition of Ethidium homodimer […]) alone or together with substances or with tumour cells together with substances or inhibitors as indicated in the figures. After 6-18 h, cells were stained with Hoechst33342 and images were acquired. In order to identify the mode of cell death, all images were analyzed with FIJI. The total number of nuclei was determined through a low threshold over all Hoechst positive nuclei. On the same channel a second, separate threshold was used to determine the number of condensed nuclei. A third threshold on the second channel was used in order to determine the number of nuclei that were stained positive for […]. Knockdown in cells was achieved by double-transfection with siRNA using Lipofectamie […] […] Knockdown efficiencies were determined by Western Blotting using antibodies against RIPK3 (Abcam), Caspase-8 (ProSci) and a-tubulin (Sigma) upon lysis with Laemmli buffer or by quantitative PCR (Roche). […] Knockdown efficiencies were determined using quantitative PCR (Roche). Tumor cell number upon knockdown was determined by counting Hoechst33342-positive cells, and tumor cell death was determined by counting condensed and/or EthD-III-positive nuclei (see below). Cell migration was determined by a scratch assay Wang et al., 2007). […]

For test [3], the system named is L929 cells. The test is described as follows: Cell death assay in L929 cells (TNF-induced necroptosis, Hoechst 33342/EtDIII staining). Type of test: cell-based, mouse. Conditions: L929 cells treated with TNFα; staining with Hoechst 33342 and EtDIII. How it is done:
Cell Death Assays: HUVECs, HMVECs-L or L929 cells (1.5×10^4 at seeding in 100 μl) were cultured for 24 hours in 96-well plates. To induce cell death, cells were stimulated overnight with either rhTRAIL (100 ng/ml, Peprotech), Staurosporine ([…], Jena BioScience), H2O2 (1 mM, AppliChem) or […] (100 ng/ml, Peprotech) or cultured under hypoxic conditions (1% O2, Coy Laboratory Inc). […] Knockdown efficiencies were determined by Western Blotting using antibodies against RIPK3 (Abcam), Caspase-8 (ProSci) and a-tubulin (Sigma) upon lysis with Laemmli buffer or by quantitative PCR (Roche). […] Knockdown efficiencies were determined using quantitative PCR (Roche). Tumor cell number upon knockdown was determined by counting Hoechst33342-positive cells, and tumor cell death was determined by counting condensed and/or EthD-III-positive nuclei (see below). Cell migration was determined by a scratch assay Wang et al., 2007). […] To all images to be analyzed, a Gaussian blur with a radius of 3 pixels was applied to prevent repeatedly counting of fragmented parts of apoptotic nuclei. […] The total number of all endothelial nuclei was determined through a low threshold (TH1) and application of a watershed on the resulting binary image over all Hoechst positive nuclei (minus the nuclei from tumor cells). […]

In test [4] the test system is endothelial cells of the mouse lung. The test is described as follows: Tumour cell-induced endothelial cell death in vivo (EthD-III-positive endothelial cells in lung, 6 h). Conditions: B16 tumour cells i.v., Nec-1 1.65 μg/g i.v. per dose. As to the method: (§1) In vivo: Tumour cells and substances or inhibitors were injected i.v. as depicted in the scheme in FIG. 5B into wildtype animals or animals of the respective genotype. To identify EtDIII-positive cells in vivo, animals were injected with EtDIII i.v. 10 min before sacrifice. Organs were isolated and processed for immunohistochemical analysis. For determining the number of metastasis, animals were sacrificed, lungs were isolated and macroscopically analyzed. All reagents used for these studies (incl. DR6-Fc) are commercially available (e.g. Lonza, CellSignaling, Sigma, R&D, etc.). […]
(§2) TUNEL staining kit was from Roche. Sections were analyzed in XYZ views on a Leica SPS confocal microscope. The number of EthD-III-positive endothelial cells was determined by manual counting of EthD-III/ERG- or EthD-III/CD31-positive cells on a minimum of four random tissue sections per organ. For quantification of extravasating tumor cells, cryosections were analyzed by two criteria: tumor cells directly surrounded by CD31 staining (i.e. blood vessel) and with a noninvasive phenotype (i.e. round cell shape) were scored as intravascular, while cells outside blood vessels with an invasive phenotype (i.e. irregular cell shape with protrusions) were scored as extravascular. […]

Test [5] relates to B16 or LLC1 tumour cells. The test is described as follows: Metastasis model: lung metastases after i.v. tumour cell injection (12 d). As to conditions: Nec-1 1.65 μg/g i.v. per dose, lungs at 12 d. Type of test: in vivo, mouse. As to the method:
as §1, §2

Test [6] has as its target T1, RIPK1 (Homo sapiens, UniProt Q13546).
T1 sequence (Q13546 1-671): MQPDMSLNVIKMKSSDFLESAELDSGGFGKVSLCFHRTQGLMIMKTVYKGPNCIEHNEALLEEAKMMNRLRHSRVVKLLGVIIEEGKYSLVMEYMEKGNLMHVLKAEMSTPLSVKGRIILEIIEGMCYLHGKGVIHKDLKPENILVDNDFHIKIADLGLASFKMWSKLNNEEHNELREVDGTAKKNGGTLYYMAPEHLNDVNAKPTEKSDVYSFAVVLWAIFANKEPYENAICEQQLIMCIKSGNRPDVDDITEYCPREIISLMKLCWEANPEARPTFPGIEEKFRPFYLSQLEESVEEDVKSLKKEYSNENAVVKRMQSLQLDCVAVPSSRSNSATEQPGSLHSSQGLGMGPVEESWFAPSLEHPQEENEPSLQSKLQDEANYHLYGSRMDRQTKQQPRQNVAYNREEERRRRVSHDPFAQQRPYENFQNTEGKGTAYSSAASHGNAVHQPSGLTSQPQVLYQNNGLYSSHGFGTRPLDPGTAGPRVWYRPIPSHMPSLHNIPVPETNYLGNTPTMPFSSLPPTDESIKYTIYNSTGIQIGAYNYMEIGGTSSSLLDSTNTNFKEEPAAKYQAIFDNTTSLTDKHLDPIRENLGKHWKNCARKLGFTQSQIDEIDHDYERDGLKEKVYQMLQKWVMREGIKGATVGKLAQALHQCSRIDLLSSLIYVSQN
Conditions: cited from earlier work.

For test [7], the system named is necroptosis. Conditions: where Nec1i can be modified to an active form; cited from earlier work.

With `OO` [H2O2], the “type of cell death induced in HUVEC” value in test [1] is reported as “necrotic phenotype”.

Consider `CN1C(=O)C(Cc2c[nH]c3ccccc23)NC1=S` (stereo not drawn) [Nec-1, 5-(1H-indo1-3-ylmethyl)-3-methyl-2-thioxo-4-imidazolidinone], for which the “tumour cell-induced necroptosis of endothelial cells in vitro (number of necroptotic HUVEC)” value in test [2] is reported as “reduced”. In test [3], the “TNF-induced necrotic (necroptotic) phenotype of L929 cells, effect of addition of inhibitor” value is listed as “could be blocked”. In addition, the “tumour cell-induced endothelial necroptosis in vivo (necroptotic ECs)” value in test [4] is reported as “reduced”. The “metastasis formation in vivo” value in test [5] was “reduced”.

Regarding `CN[C@@H]1C[C@H]2O[C@@](C)([C@@H]1OC)n1c3ccccc3c3c4c(c5c6ccccc6n2c5c31)C(=O)NC4` [Staurosporine], the “type of cell death induced in HUVEC” value in test [1] is “induced apoptosis”.

`O=C1NC(=S)NC1Cc1c[nH]c2ccccc12` (stereo not drawn) [Nec-1 inactive, 5-((1H-indol-3-yl)methyl)-2-thioxoimidazolidin-4-one]: the “effectiveness in vitro relative to Nec-1 (times less effective)” value in test [6] is “approximately 100 times”. Besides, the “inhibition of necroptosis in cellular systems or in vivo” value in test [7] is reported as “can efficiently inhibit necroptosis”.

B1: TRAIL: known stimulus for apoptosis, rhTRAIL from Peprotech (protein, UniProt P50591 1-281, looked up)
Tumor necrosis factor ligand …: MAMMEVQGGPSLGQTCVLIVIFTVLLQSLCVAVTYVYFTNELKQMQDKYSKSGIACFLKEDDSYWDPNDEESMNSPCWQVKWQLRQLVRKMILRTSEETISTVQEKQQNISPLVRERGPQRVAAHITGTRGRSNTLSSPNSKNEKALGRKINSWESSRSGHSFLSNLHLRNGELVIHEKGFYYIYSQTYFRFQEEIKENTKNDKQMVQYIYKYTSYPDPILLMKSARNSCWSKDAEYGLYSIYQGGIFELKENDRIFVSVTNEHLIDMDHEASFFGAFLVG
For the molecule B1, the “type of cell death induced in HUVEC” value in test [1] was “induced apoptosis”.

The record behind these values is patent publication US20170226514A1, “PREVENTION OF TUMOUR METASTASIS BY INHIBITION OF NECROPTOSIS” (MAX-PLANCK-GESELLSCHAFT ZUR FÖRDERUNG DER WISSENSCHAFTEN …, priority 2014, published 2017).
